# Measured values reported in ChEMBL document CHEMBL4359837, “Discovery of 2-(4-Chloro-3-(trifluoromethyl)phenyl)-N-(4-((6,7-dimethoxyquinolin-4-yl)oxy)phenyl)acetamide (CHMFL-KIT-64) as a Novel Orally Available Potent Inhibitor against Broad-Spectrum Mutants of c-KIT Kinase for Gastrointestinal Stromal Tumors” (J Med Chem, 2019).
# Active and inactive are the calls of the source. The calls are words filed in the database; no cut-off is given here.
# Assays:
# [1] = tested on: Mast/stem cell growth factor receptor Kit (Homo sapiens), P10721 [UNDEFINED MUTATION]; settings: 0.1 uM
# Chain of Mast/stem cell growth factor receptor Kit (Homo sapiens), P10721 [UNDEFINED MUTATION] (P10721 whole entry, looked up, change not shown): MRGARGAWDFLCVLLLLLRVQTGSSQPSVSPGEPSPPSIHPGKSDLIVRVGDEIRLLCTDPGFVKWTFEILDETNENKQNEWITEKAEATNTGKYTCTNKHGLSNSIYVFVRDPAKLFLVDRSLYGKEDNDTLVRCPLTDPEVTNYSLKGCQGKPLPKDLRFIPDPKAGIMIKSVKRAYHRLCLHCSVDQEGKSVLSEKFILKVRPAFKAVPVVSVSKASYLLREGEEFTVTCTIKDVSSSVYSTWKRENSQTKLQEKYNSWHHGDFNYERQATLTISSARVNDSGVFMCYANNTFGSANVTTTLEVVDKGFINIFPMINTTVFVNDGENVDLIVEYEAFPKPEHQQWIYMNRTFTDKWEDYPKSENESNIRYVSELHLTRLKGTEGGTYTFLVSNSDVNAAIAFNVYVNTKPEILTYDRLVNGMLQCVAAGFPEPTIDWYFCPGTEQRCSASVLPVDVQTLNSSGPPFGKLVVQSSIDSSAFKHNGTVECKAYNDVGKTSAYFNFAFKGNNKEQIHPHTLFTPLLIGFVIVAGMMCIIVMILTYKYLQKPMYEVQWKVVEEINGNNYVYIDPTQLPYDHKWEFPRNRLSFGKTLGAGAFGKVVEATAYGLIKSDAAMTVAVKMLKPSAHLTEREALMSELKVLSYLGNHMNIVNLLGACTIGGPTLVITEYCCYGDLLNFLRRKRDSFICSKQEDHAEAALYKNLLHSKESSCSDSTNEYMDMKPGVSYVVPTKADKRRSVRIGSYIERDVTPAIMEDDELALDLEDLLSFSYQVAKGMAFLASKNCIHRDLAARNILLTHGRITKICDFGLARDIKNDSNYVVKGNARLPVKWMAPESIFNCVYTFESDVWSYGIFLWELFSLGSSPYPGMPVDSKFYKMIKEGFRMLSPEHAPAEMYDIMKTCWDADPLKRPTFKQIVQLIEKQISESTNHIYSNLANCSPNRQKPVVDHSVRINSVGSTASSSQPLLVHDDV
# Description: Inhibition of c-KIT 560 to 578 deletion/T670I mutant in human GIST5R assessed as reduction in AKT phosphorylation at T308 residue at 0.1 uM measured after 2 hrs by Western blot analysis
# [2] = tested on: Mast/stem cell growth factor receptor Kit (Homo sapiens), P10721 [UNDEFINED MUTATION]; settings: GISTT1, 0.1 uM
# Description: Inhibition of c-KIT 560 to 578 deletion mutant in human GISTT1 cells assessed as reduction in pS6 phosphorylation at S235 residue at 0.1 uM measured after 2 hrs by Western blot analysis
# [3] = tested on: Mast/stem cell growth factor receptor Kit (Homo sapiens), P10721 [UNDEFINED MUTATION]; settings: GISTT1, 0.1 uM; remark: listed apart in the source
# Description: Inhibition of c-KIT 560 to 578 deletion/T670I mutant in human GISTT1 cells assessed as reduction in c-KIT autophosphorylation at Y719 residue at 0.1 uM measured after 2 hrs by Western blot analysis
# [4] = tested on: Mast/stem cell growth factor receptor Kit (Homo sapiens), P10721 [UNDEFINED MUTATION]; settings: GISTT1, 0.1 uM; remark: listed apart in the source
# Description: Inhibition of c-KIT 560 to 578 deletion/T670I mutant in human GISTT1 cells assessed as reduction in pS6 phosphorylation at S235 residue at 0.1 uM measured after 2 hrs by Western blot analysis
# [5] = tested on: Mast/stem cell growth factor receptor Kit (Homo sapiens), P10721 [UNDEFINED MUTATION]; settings: 0.1 uM; remark: listed apart in the source
# Description: Inhibition of c-KIT 560 to 578 deletion/T670I mutant in human GIST5R assessed as reduction in STAT3 phosphorylation at Y705 residue at 0.1 uM measured after 2 hrs by Western blot analysis
# [6] = tested on: Mast/stem cell growth factor receptor Kit (Homo sapiens), P10721 [UNDEFINED MUTATION]; settings: GISTT1, 0.1 uM; remark: listed apart in the source
# Description: Inhibition of c-KIT 560 to 578 deletion mutant in human GISTT1 cells assessed as reduction in ERK phosphorylation at T204 residue at 0.1 uM measured after 2 hrs by Western blot analysis
# [7] = tested on: Mast/stem cell growth factor receptor Kit (Homo sapiens), P10721 [UNDEFINED MUTATION]; settings: 0.1 uM; remark: listed apart in the source
# Description: Inhibition of c-KIT 560 to 578 deletion/T670I mutant in human GIST5R cells assessed as reduction in c-KIT autophosphorylation at Y703 residue at 0.1 uM measured after 2 hrs by Western blot analysis
# [8] = tested on: Mast/stem cell growth factor receptor Kit (Homo sapiens), P10721 [UNDEFINED MUTATION]; settings: GISTT1, 0.1 uM; remark: listed apart in the source
# Description: Inhibition of c-KIT 560 to 578 deletion/T670I mutant in human GISTT1 cells assessed as reduction in AKT phosphorylation at T308 residue at 0.1 uM measured after 2 hrs by Western blot analysis
# [9] = tested on: Mast/stem cell growth factor receptor Kit (Homo sapiens), P10721 [UNDEFINED MUTATION]; settings: GISTT1, 0.1 uM; remark: listed apart in the source
# Description: Inhibition of c-KIT 560 to 578 deletion/T670I mutant in human GISTT1 cells assessed as reduction in c-KIT autophosphorylation at Y703 residue at 0.1 uM measured after 2 hrs by Western blot analysis
# [10] = tested on: Mast/stem cell growth factor receptor Kit (Homo sapiens), P10721 [UNDEFINED MUTATION]; settings: GISTT1, 0.1 uM; remark: listed apart in the source
# Description: Inhibition of c-KIT 560 to 578 deletion/T670I mutant in human GISTT1 cells assessed as reduction in pS6 phosphorylation at S236 residue at 0.1 uM measured after 2 hrs by Western blot analysis
# [11] = tested on: Mast/stem cell growth factor receptor Kit (Homo sapiens), P10721 [L576P]; settings: Mus musculus
# Mus musculus [12] = type: functional, organism-based; settings: BALB/c, 80 mg/kg, TDE = time-dependent effect
# GISTT1 [13] = type: functional, cell-based; settings: Homo sapiens
# [14] = Cmax in Beagle dog at 1 mg/kg, iv by LC-MS/MS analysis; type: ADME, organism-based, Canis lupus familiaris; parameters: dose 1 mg/kg, route intravenous; settings: in vivo
# GISTT1 [15] = type: functional, Homo sapiens
# GISTT1 [16] = type: functional, Homo sapiens; remark: listed apart in the source
# [17] = AUC (0 to t) in mouse at 1 mg/kg, iv by LC-MS/MS analysis; type: ADME, organism-based; settings: in vivo
# [18] = Antitumor activity against mouse BAF3(transformed) cells harboring c-KIT Y823D mutant implanted in BALB/c nu mouse assessed as tumor weight at 80 mg/kg/day, po administered via gavage for 9 days (reference value: 0.96 g); type: functional
# Mus musculus [19] = experiment: Antitumor activity against mouse BAF3(transformed) cells harboring c-KIT D820G mutant implanted in BALB/c nu mouse assessed as tumor growth inhibition administered via oral gavage for 9 days; type: functional
# [20] = target: T1, Platelet-derived growth factor receptor alpha (Homo sapiens, UniProt P16234); experiment: Inhibition of recombinant human GST-tagged PDGFRA cytoplasmic domain (550 to 1089 residues) expressed in baculovirus expression system by Z-lyte assay
# T1 sequence (P16234 whole entry, the tested form may be a part): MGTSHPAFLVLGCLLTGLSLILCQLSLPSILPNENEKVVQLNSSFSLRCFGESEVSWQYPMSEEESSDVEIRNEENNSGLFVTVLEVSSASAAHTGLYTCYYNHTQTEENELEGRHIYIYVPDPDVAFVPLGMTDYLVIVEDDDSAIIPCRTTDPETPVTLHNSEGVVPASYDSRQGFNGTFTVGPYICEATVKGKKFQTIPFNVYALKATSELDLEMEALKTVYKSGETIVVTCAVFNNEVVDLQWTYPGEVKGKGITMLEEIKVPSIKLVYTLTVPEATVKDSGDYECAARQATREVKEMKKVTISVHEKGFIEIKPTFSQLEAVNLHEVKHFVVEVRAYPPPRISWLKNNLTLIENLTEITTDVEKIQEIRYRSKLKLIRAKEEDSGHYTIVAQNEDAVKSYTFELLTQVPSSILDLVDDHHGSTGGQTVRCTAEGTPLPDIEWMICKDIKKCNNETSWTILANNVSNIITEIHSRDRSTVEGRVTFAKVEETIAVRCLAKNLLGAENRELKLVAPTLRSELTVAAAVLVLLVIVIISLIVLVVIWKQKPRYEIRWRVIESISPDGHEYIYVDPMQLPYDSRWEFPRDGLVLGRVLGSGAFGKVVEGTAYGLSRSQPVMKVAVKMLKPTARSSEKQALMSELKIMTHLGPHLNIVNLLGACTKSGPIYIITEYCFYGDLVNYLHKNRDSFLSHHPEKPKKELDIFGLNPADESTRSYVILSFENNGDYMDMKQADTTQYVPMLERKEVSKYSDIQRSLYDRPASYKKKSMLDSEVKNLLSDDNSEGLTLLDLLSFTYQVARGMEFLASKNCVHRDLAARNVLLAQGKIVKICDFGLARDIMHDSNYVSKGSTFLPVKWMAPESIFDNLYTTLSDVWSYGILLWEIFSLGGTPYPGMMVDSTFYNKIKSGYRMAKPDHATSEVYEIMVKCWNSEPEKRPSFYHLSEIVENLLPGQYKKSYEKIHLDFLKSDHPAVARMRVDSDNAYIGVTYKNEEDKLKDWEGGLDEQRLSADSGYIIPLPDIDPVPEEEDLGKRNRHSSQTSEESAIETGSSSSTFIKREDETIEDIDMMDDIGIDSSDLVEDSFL
# [21] = Half life in Beagle dog at 1 mg/kg, iv by LC-MS/MS analysis; type: ADME, organism-based, Canis lupus familiaris; settings: in vivo
# [22] = tested on: Mast/stem cell growth factor receptor Kit (Homo sapiens), P10721 [UNDEFINED MUTATION]
# Description: Inhibition of c-KIT 560 to 578 deletion/T670I mutant in human GIST5R cells assessed as growth inhibition after 72 hrs by CCK8 assay
# [23] = Cmax in Beagle dog at 5 mg/kg, po by LC-MS/MS analysis; type: ADME, organism-based, Canis lupus familiaris; parameters: dose 5 mg/kg, route oral; settings: in vivo
# [24] = AUC (0 to t) in Beagle dog at 5 mg/kg, po by LC-MS/MS analysis; type: ADME, organism-based, Canis lupus familiaris; settings: in vivo
# [25] = target: T2, Mast/stem cell growth factor receptor Kit (Homo sapiens, UniProt P10721, 560-578DEL/T670I); type: cell-based, GISTT1
# T2 sequence (P10721 whole entry, looked up, stated change not applied): as the sequence (P10721 whole entry, looked up, change not shown) above
# [26] = Oral bioavailability in Beagle dog at 5 mg/kg by LC-MS/MS analysis; type: ADME, organism-based, Canis lupus familiaris; settings: in vivo
# [27] = Inhibition of recombinant human GST-tagged FLT4 cytoplasmic domain Q890H/V1128L/H1146R mutant (800 to 1297 residues) expressed in baculovirus expression system by Z-lyte assay
# [28] = Tmax in Beagle dog at 1 mg/kg, iv by LC-MS/MS analysis; type: ADME, organism-based, Canis lupus familiaris; settings: in vivo
# Mus musculus [29] = type: functional, organism-based; settings: BALB/c, 80 mg/kg, TDE = time-dependent effect; remark: listed apart in the source
# [30] = tested on: Mast/stem cell growth factor receptor Kit (Homo sapiens), P10721 [N822K]; settings: Mus musculus
# Description: Inhibition of c-KIT N822K mutant in mouse BAF3(transformed) cells assessed as growth inhibition after 72 hrs by CCK8 assay
# [31] = Tmax in Sprague-Dawley rat at 10 mg/kg, po by LC-MS/MS analysis; type: ADME, organism-based; settings: in vivo
# [32] = target: RAC-alpha serine/threonine-protein kinase (Homo sapiens) (UniProt P31749); type: cell-based; settings: GISTT1
# Chain of RAC-alpha serine/threonine-protein kinase (Homo sapiens) (P31749 whole entry): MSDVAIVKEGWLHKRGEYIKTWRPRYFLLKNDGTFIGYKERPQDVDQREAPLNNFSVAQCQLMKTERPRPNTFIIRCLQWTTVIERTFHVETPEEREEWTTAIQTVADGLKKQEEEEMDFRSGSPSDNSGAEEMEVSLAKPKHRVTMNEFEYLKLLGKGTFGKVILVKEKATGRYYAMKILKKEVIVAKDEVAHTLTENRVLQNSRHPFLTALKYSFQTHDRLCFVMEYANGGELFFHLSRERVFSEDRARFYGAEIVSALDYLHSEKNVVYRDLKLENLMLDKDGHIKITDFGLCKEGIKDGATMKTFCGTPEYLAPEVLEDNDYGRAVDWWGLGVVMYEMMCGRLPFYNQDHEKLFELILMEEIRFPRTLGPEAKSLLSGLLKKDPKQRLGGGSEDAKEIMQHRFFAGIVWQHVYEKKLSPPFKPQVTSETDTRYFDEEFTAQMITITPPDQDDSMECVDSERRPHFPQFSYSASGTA
# [33] = target: T2, Mast/stem cell growth factor receptor Kit; type: cell-based, GISTT1; remark: listed apart in the source
# GISTT1 [34] = type: functional, Homo sapiens; remark: listed apart in the source
# [35] = target: T2, Mast/stem cell growth factor receptor Kit
# [36] = target: Proto-oncogene tyrosine-protein kinase receptor Ret (Homo sapiens, UniProt P07949); experiment: Inhibition of recombinant human RET cytoplasmic domain (658 to 1114 residues) expressed in baculovirus expression system by Z-lyte assay
# [37] = Cmax in mouse at 10 mg/kg, po by LC-MS/MS analysis; type: ADME, organism-based; parameters: dose 10 mg/kg, route oral; settings: in vivo
# [38] = target: Platelet-derived growth factor receptor beta (Homo sapiens, UniProt P09619); experiment: Binding affinity to wild-type human partial length PDGFRB (V582 to Y1009 residues) expressed in bacterial expression system assessed as residual binding level at 1 uM by Kinomescan method relative to control
# GISTT1 [39] = type: functional, cell-based; settings: Homo sapiens; remark: listed apart in the source
# [40] = target: T3, Mast/stem cell growth factor receptor Kit (Homo sapiens, UniProt P10721, 560-578DEL); type: cell-based, GISTT1
# T3 sequence (P10721 whole entry, looked up, stated change not applied): as the sequence (P10721 whole entry, looked up, change not shown) above
# Homo sapiens [41] = species: Homo sapiens; type: functional, cell-based
# [42] = tested on: Mast/stem cell growth factor receptor Kit (Homo sapiens), P10721 [V654A]; settings: Mus musculus
# Description: Inhibition of c-KIT V654A mutant in mouse BAF3(transformed) cells assessed as growth inhibition after 72 hrs by CCK8 assay
# [43] = Cmax in mouse at 1 mg/kg, iv by LC-MS/MS analysis; type: ADME, organism-based; parameters: dose 1 mg/kg, route intravenous; settings: in vivo
# [44] = target: RAC-alpha serine/threonine-protein kinase (Homo sapiens) (UniProt P31749); type: cell-based; settings: GISTT1; remark: listed apart in the source
# [45] = target: T3, Mast/stem cell growth factor receptor Kit; type: cell-based, GISTT1; remark: listed apart in the source
# [46] = tested on: Mast/stem cell growth factor receptor Kit (Homo sapiens), P10721 [UNDEFINED MUTATION]; settings: GISTT1
# Description: Inhibition of c-KIT 560 to 578 deletion mutant in human GISTT1 cells assessed as growth inhibition after 72 hrs by CCK8 assay
# [47] = target: RAC-alpha serine/threonine-protein kinase (Homo sapiens) (UniProt P31749); type: cell-based
# [48] = target: T2, Mast/stem cell growth factor receptor Kit; remark: listed apart in the source
# Homo sapiens [49] = species: Homo sapiens; type: functional, cell-based; remark: listed apart in the source
# [50] = target: T3, Mast/stem cell growth factor receptor Kit; type: cell-based, GISTT1; remark: listed apart in the source
# [51] = tested on: Mast/stem cell growth factor receptor Kit (Homo sapiens), P10721 [V559A]; settings: Mus musculus
# Description: Inhibition of c-KIT V559A mutant in mouse BAF3(transformed) cells assessed as growth inhibition after 72 hrs by CCK8 assay
# Homo sapiens [52] = type: functional, cell-based; remark: listed apart in the source
# [53] = target: T3, Mast/stem cell growth factor receptor Kit; type: cell-based, GISTT1; remark: listed apart in the source
# Mus musculus [54] = type: functional, organism-based; settings: BALB/c, 80 mg/kg, TDE = time-dependent effect; remark: listed apart in the source
# [55] = Tmax in Sprague-Dawley rat at 1 mg/kg, iv by LC-MS/MS analysis; type: ADME, organism-based; settings: in vivo
# [56] = target: Mast/stem cell growth factor receptor Kit (Homo sapiens, UniProt P10721); experiment: Inhibition of human KIT
# [57] = target: T1, Platelet-derived growth factor receptor alpha; type: cell-based; settings: GISTT1
smiles,measurement,setting,value
CCN(CC)CCNC(=O)c1c(C)[nH]c(/C=C2\C(=O)Nc3ccc(F)cc32)c1C [SUNITINIB],inhibition,[1],Active
same,inhibition,[2],Active
same,inhibition,[3],Active
same,inhibition,[4],Active
same,inhibition,[5],Active
same,inhibition,[6],Active
same,inhibition,[7],Active
same,inhibition,[8],Active
same,inhibition,[9],Active
same,inhibition,[10],Active
COc1cc2nccc(Oc3ccc(NC(=O)Cc4ccc(Cl)c(C(F)(F)F)c4)cc3)c2cc1OC,GI50,[11],0.001 µM
same,inhibition,Mus musculus [12],Tde
same,Activity,GISTT1 [13],Dose-dependent effect
same,Cmax,[14],1.11 µg/mL
same,Activity,GISTT1 [15],0.14 g
same,Activity,GISTT1 [16],0.2 g
same,AUC(0-t),[17],2.99 µg·h/mL
same,Activity,[18],0.09 g
same,TGI,Mus musculus [19],Dose-dependent effect
same,IC50,[20],0.025 µM
same,half-life,[21],20.6 h
same,GI50,[22],0.073 µM
same,Cmax,[23],1.16 µg/mL
same,AUC(0-t),[24],19.1 µg·h/mL
same,EC50,[25],< 0.1 µM
same,bioavailability,[26],81%
same,IC50,[27],0.121 µM
same,Tmax,[28],1.98 min
same,inhibition,Mus musculus [29],Tde
same,GI50,[30],0.026 µM
same,Tmax,[31],9 h
same,inhibition,[32],Active
same,EC50,[33],< 0.1 µM
same,Activity,GISTT1 [34],0.27 g
same,EC50,[35],< 0.1 µM
same,IC50,[36],0.034 µM
same,Cmax,[37],1.39 µg/mL
same,Activity,[38],< 1%
same,Activity,GISTT1 [39],Dose-dependent effect
same,EC50,[40],< 0.1 µM
same,Activity,Homo sapiens [41],Dose-dependent effect
same,GI50,[42],0.32 µM
same,Cmax,[43],0.52 µg/mL
same,inhibition,[44],inactive
same,EC50,[45],< 0.1 µM
same,GI50,[46],0.006 µM
same,inhibition,[47],Active
same,EC50,[48],< 0.1 µM
same,Activity,Homo sapiens [49],Dose-dependent effect
same,EC50,[50],< 0.1 µM
same,GI50,[51],0.021 µM
same,TGI,Homo sapiens [52],Dose-dependent effect
same,EC50,[53],< 0.1 µM
same,inhibition,Mus musculus [54],Tde
same,Tmax,[55],0 h
same,IC50,[56],0.004 µM
same,inhibition,[57],Active
